Legend:
[1] = tested on: Wistar rats showing proteinuria; assay: Effect of treatment on proteinuria (urinary protein by sulfosalicylic acid turbidimetry) in BSA-injected rats; assay type: in vivo, rat; settings: BSA 350 mg/kg i.v., intragastric twice daily, yeast compositions 1.0 ml/100 g, pednisone 0.25 mg/100 g
Method: (§1) The activated yeast compositions used in the following examples were prepared as described above, using Saccharomyces cerevisiae Hansen AS2.502, cultured in the presence of an alternating electric field having the electric field frequency and field strength exemplified in the parentheses following the recommended ranges listed in Section IV, supra. Control (i.e., untreated) yeast compositions were those prepared in the same manner as described in Section VI, supra, except that the yeast cells were cultured in the absence of EMFs. Unless otherwise specified, all compositions of interest were administered to the animals by intragastric feeding.
To test the ability of the activated yeast compositions to reduce the level of urinary protein, sixty healthy Wistar rats with average weight of about 200-220 g (4-7 months old, half of them male and the other half female) were chosen and males and females were kept in separate cages. […] Urine samples were collected from the fine cancellated base of metabolic cages, and the amount of protein in the samples was determined by […]. […]
The amount of urinary protein was determined by sulfosalicylic acid turbidimetry. The volume of each urine sample was first measured (ml). […] Ten minutes later, the absorption of the sample test tube was measured at 620 nm against the control tube. […]

[2] = tested on: Wistar rats showing proteinuria; assay: Effect of treatment on serum protein (biuret method) in BSA-injected rats; assay type: in vivo, rat; settings: Wistar rats prepared as in Example 1; intragastric twice daily for six weeks; yeast compositions 1.0 ml/100 g, pednisone 0.2 mg/100 g
Method: as §1, with “feeding. […]” for “feeding.”
Subsequently, a composition of interest was administered twice daily to each of the four groups of rats for six weeks. […] The amount of protein in the supernatant (serum protein) was determined.
To determine the amount of serum protein, 50 μl of the supernatant and standard serum protein were added into two separate tubes. […] The mixtures were placed in water bath at 37° C. for 10 minutes and measured for absorption at 546 nm. The concentration of serum protein was calculated according to the following formula: [Serum Protein]=[absorption for the testing sample/absorption for the standard]×[standard serum protein](g/dl).

**Q.** How did the “Urinary Protein (mg in 100 ml urine sample) in a 24-hour Period, 8-Week Treatment” value ([1]; last day of eighth week) turn out when `C[C@]12C=CC(=O)C=C1CC[C@@H]1[C@@H]2C(=O)C[C@@]2(C)[C@H]1CC[C@]2(O)C(=O)CO` [Pednisone, pednisone (metacortandiacin)] was run?
**A.** 4.22 ± 1.34 mg in 100 ml urine sample

**Q.** And the “Urinary Protein (mg in 100 ml urine sample) in a 24-hour Period, 4-Week Treatment” value ([1]; last day of fourth week)?
**A.** 4.57 ± 1.42 mg in 100 ml urine sample

**Q.** What about the “Serum Protein” value [2] of the same molecule?
**A.** 6.41 ± 3.32 g/dL

Source: patent publication US20050106168A1, “Methods and compositions for treating nephrotic syndrome” (priority 2003, published 2005)
